Drawing on patent US9012431B2, “Boron-containing small molecules as anti-inflammatory agents” (Anacor Pharmaceuticals, Inc., priority 2008, dated 2015), this text covers IC50 for 21 compounds.

The test system of one assay is TNF-α. Put plainly: Cytokine assay, TNF-α release from PBMC. It is filed as cell-based. To be noted: 1 μg/mL LPS, supernatant at 24 hours. As to the method:
(§1) The ability of the compounds described herein to inhibit pro-inflammatory cytokines or phsophodiesterases were tested.
(§2) Frozen human peripheral blood mononucleocytes (PBMC) were thawed and centrifuged. Cryopreservation media was aspirated off of the cell pellet, and the cells were resuspended in fresh culture media (CM) comprising RPMI 1640 and 10% FBS in 96 well plates. Test article was dissolved in DMSO to form a 10 mM sample (DMSO, 100%). The 10 mM samples were diluted to 100 μM in CM (DMSO, 1%), then further diluted to 10, 1, 0.1, 0.01 μM in 200 μL of CM (n=3). […] IL-23 was assayed using a commercial ELISA kit (R&D Systems).

A further assay relates to IL-2. Put plainly: Cytokine assay, IL-2 release from PBMC. The settings on record: human PBMC, 20 ug/mL PHA, supernatant at 24 hours. It is filed as cell-based. Here is the method: as §1, §2
A further assay has as its system IFN-γ. Put plainly: Cytokine assay, IFN-γ release from PBMC. It is filed as cell-based. To be noted: human PBMC, 20 ug/mL PHA, supernatant at 24 hours. Here is the method: as §1, §2
The test system of the next assay is IL-5. Put plainly: Cytokine assay, IL-5 release from PBMC. It is filed as cell-based. To be noted: human PBMC, 20 ug/mL PHA, supernatant at 48 hours. Here is the method:
as §1, §2

The test system of a further assay is IL-10. Put plainly: Cytokine assay, IL-10 release from PBMC. It is filed as cell-based. The settings on record: human PBMC, 20 ug/mL PHA, supernatant at 48 hours. Here is the method:
as §1, §2

The subject of assay [1] is T1, PDE4 partially purified from human U-937 myeloid leukemia cells.
T1 construct: PDE4 partially purified from human U-937 myeloid leukemia cells was used
Briefly: PDE4 Assay (enzyme from U-937 cells, [3H]cAMP). It is filed as biochemical. To be noted: PDE4 from U-937 cells, Tris buffer pH 7.5, 20 minutes at 25° C. Here is the method:
Test article and/or vehicle was incubated with 0.2 mg enzyme and 1 mM cAMP containing 0.01 mM [3H]cAMP in Tris buffer pH 7.5 for 20 minutes at 25° C. The reaction was terminated by boiling for 2 minutes and the resulting AMP is converted to adenosine by addition of 10 mg/ml snake venom nucleotidase and further incubation at 37° C. for 10 minutes. Unhydrolyzed cAMP is bound to AG1-X2 resin, and remaining [3H]Adenosine in the aqueous phase is quantitated by scintillation counting.

One may read the IC50 as the concentration at which inhibition is half-maximal. Consider `N#Cc1ccc(Oc2ccc3c(c2)COB3O)cc1OCC(=O)N1CCOCC1` [D41, 4-(1-Hydroxy-1,3-dihydro-benzo[c][1,2]oxaborol-5-yloxy)-2-(2-morpholin-4-yl-2-oxo-ethoxy)-benzonitrile], for which the IC50 is 1000 to 4000 nM in the assay on TNF-α (Homo sapiens, PBMC, 24 h); below 1000 nM in the assay on IL-2; below 1000 nM with IFN-γ; 1000 to 4000 nM in the assay on IL-5; 1000 to 4000 nM in the assay with IL-10; below 1000 nM in assay [1].

On to `COc1ccc(C#N)c(Oc2ccc3c(c2)COB3O)n1` [D47, 2-(1-Hydroxy-1,3-dihydro-benzo[c][1,2]oxaborol-5-yloxy)-6-methoxy-nicotinonitrile], for which the IC50 was below 1000 nM in the assay on TNF-α (Homo sapiens, PBMC, 24 h); below 1000 nM in the assay on IL-2; below 1000 nM in the assay on IFN-γ; below 1000 nM with IL-5; 1000 to 4000 nM in the assay on IL-10; below 1000 nM in assay [1].

On to `CCOC(=O)c1ccc(Oc2ccc3c(c2)COB3O)c(F)c1` [D51, 5-(2-Fluoro-4-ethoxycarbonylphenoxy)-1-hydroxy-2,1-benzoxaborole], for which the IC50 in the assay on TNF-α (Homo sapiens, PBMC, 24 h) was 1000 to 4000 nM; in the assay on IL-2 it was 1000 to 4000 nM; with IFN-γ it was 1000 to 4000 nM; in the assay with IL-5, 4000 to 10000 nM; in the assay on IL-10 it was 1000 to 4000 nM; in assay [1], below 1000 nM.

For `COC(=O)c1cc(F)c(Oc2ccc3c(c2)COB3O)c(F)c1` [D52, 5-(2,6-Difluoro-4-methoxycarbonylphenoxy)-1-hydroxy-2,1-benzoxaborole], the IC50 was above 10000 nM in the assay with TNF-α (Homo sapiens, PBMC, 24 h); 4000 to 10000 nM with IL-2; 4000 to 10000 nM in the assay with IFN-γ; above 10000 nM in the assay with IL-5; above 10000 nM with IL-10; 1000 to 4000 nM in assay [1].

As for `CCOC(=O)c1cc(F)c(Oc2ccc3c(c2)COB3O)cc1Cl` [D53, 5-(5-Chloro-2-fluoro-4-ethoxycarbonylphenoxy)-1-hydroxy-2,1-benzoxaborole], the half-maximal inhibitory concentration (IC50) in the assay on TNF-α (Homo sapiens, PBMC, 24 h) is below 1000 nM; with IL-2, below 1000 nM; in the assay on IFN-γ it was below 1000 nM; in the assay with IL-5, 1000 to 4000 nM; with IL-10 it was 1000 to 4000 nM; in assay [1] it was below 1000 nM.

For the compound `CCOC(=O)c1ccc(Oc2ccc3c(c2)COB3O)c(C(F)(F)F)c1` [D54, 5-(4-Eethoxycarbonyl-2-trifluoromethylphenoxy)-1-hydroxy-2,1-benzoxaborole], the half-inhibitory concentration (IC50) was below 1000 nM in the assay on TNF-α (Homo sapiens, PBMC, 24 h); below 1000 nM in the assay with IL-2; below 1000 nM in the assay with IFN-γ; 1000 to 4000 nM in the assay on IL-5; below 1000 nM in the assay on IL-10; below 1000 nM in assay [1].

For the compound `CC(C)OC(=O)c1ccc(Oc2ccc3c(c2)COB3O)c(F)c1` [D55, 5-(2-Fluoro-4-isopropyloxycarbonylphenoxy)-1-hydroxy-2,1-benzoxaborole], the IC50 with TNF-α (Homo sapiens, PBMC, 24 h) is 4000 to 10000 nM; in the assay on IL-2 it was below 1000 nM; in the assay on IFN-γ, below 1000 nM; in the assay on IL-5, 1000 to 4000 nM; with IL-10, 4000 to 10000 nM; in assay [1], below 1000 nM.

In the case of `CCOC(=O)c1cc(F)c(Oc2ccc3c(c2)COB3O)c(F)c1` [D56, 5-(2,6-Difluoro-4-ethoxycarbonylphenoxy)-1-hydroxy-2,1-benzoxaborole], the IC50 in the assay with TNF-α (Homo sapiens, PBMC, 24 h) was above 10000 nM; in the assay with IL-2, 4000 to 10000 nM; with IFN-γ, above 10000 nM; with IL-5, above 10000 nM; with IL-10 it was above 10000 nM; in assay [1] it was 1000 to 4000 nM.

For `CCOC(=O)c1ccc(Oc2ccc3c(c2)COB3O)cc1Cl` [D57, 5-(3-Chloro-4-ethoxycarbonylphenoxy)-1-hydroxy-2,1-benzoxaborole], the IC50 with TNF-α (Homo sapiens, PBMC, 24 h) was 4000 to 10000 nM; with IL-2, below 1000 nM; in the assay with IFN-γ, 1000 to 4000 nM; in the assay with IL-5, below 1000 nM; in the assay with IL-10, above 10000 nM; in assay [1] it was below 1000 nM.

Turning to `CCOC(=O)c1cc(Cl)c(Oc2ccc3c(c2)COB3O)cc1F` [D58, 5-(2-Chloro-5-fluoro-4-ethoxycarbonylphenoxy)-1-hydroxy-2,1-benzoxaborole], the IC50 in the assay with TNF-α (Homo sapiens, PBMC, 24 h) was 1000 to 4000 nM; with IL-2, below 1000 nM; with IFN-γ, below 1000 nM; with IL-5, below 1000 nM; in the assay on IL-10 it was above 10000 nM; in assay [1], below 1000 nM.

On to `CCN(CC)C(=O)c1ccc(Oc2ccc3c(c2)COB3O)nc1` [D62, N,N-diethyl-6-(1-hydroxy-1,3-dihydrobenzo[c][1,2]-5-yloxy) nicotinamide], for which the IC50 was below 1000 nM in the assay on TNF-α (Homo sapiens, PBMC, 24 h); below 1000 nM with IL-2; below 1000 nM with IFN-γ; 1000 to 4000 nM in the assay with IL-5; 1000 to 4000 nM in the assay on IL-10; 1000 to 4000 nM in assay [1].

Consider `CCCOC(=O)c1ccc(Oc2ccc3c(c2)COB3O)nc1` [D66, n-Propyl 6-(1-hydroxy-1,3-dihydrobenzo[c][1,2]oxaborol-5-yloxy)nicotinate], for which the IC50 in the assay on TNF-α (Homo sapiens, PBMC, 24 h) is below 1000 nM; in the assay with IL-2 it was below 1000 nM; with IFN-γ, below 1000 nM; with IL-5, below 1000 nM; in the assay on IL-10, below 1000 nM; in assay [1], below 1000 nM.

With `COC(=O)c1ccc(Oc2ccc3c(c2)COB3O)cc1` [D71, 4-(1-Hydroxy-1,3-dihydro-benzo[c][1,2]oxaborol-5-yloxy)-benzoic acid methyl ester], the IC50 is 1000 to 4000 nM in the assay with TNF-α (Homo sapiens, PBMC, 24 h); 1000 to 4000 nM in the assay on IL-2; 1000 to 4000 nM in the assay with IFN-γ; 4000 to 10000 nM in the assay on IL-5; above 10000 nM in the assay with IL-10; below 1000 nM in assay [1].

With `CCOC(=O)c1ccc(Oc2ccc3c(c2)COB3O)cc1` [D72, 4-(1-Hydroxy-1,3-dihydro-benzo[c][1,2]oxaborol-5-yloxy)-benzoic acid ethyl ester], the IC50 is 1000 to 4000 nM with TNF-α (Homo sapiens, PBMC, 24 h); 1000 to 4000 nM in the assay on IL-2; 1000 to 4000 nM in the assay on IFN-γ; 4000 to 10000 nM with IL-5; above 10000 nM in the assay on IL-10; below 1000 nM in assay [1].

With `CC(C)OC(=O)c1ccc(Oc2ccc3c(c2)COB3O)cc1` [D74, 4-(1-Hydroxy-1,3-dihydro-benzo[c][1,2]oxaborol-5-yloxy)-benzoic acid isopropyl ester], the half-maximal inhibitory concentration (IC50) in the assay on TNF-α (Homo sapiens, PBMC, 24 h) is 1000 to 4000 nM; with IL-2, below 1000 nM; with IFN-γ it was below 1000 nM; in the assay with IL-5 it was 1000 to 4000 nM; with IL-10, 1000 to 4000 nM; in assay [1], below 1000 nM.

As for `O=C(NCc1ccccc1)c1ccc(Oc2ccc3c(c2)COB3O)cc1` [D76, N-Benzyl-4-(1-hydroxy-1,3-dihydro-benzo[c][1,2]oxaborol-5-yloxy)-benzamide], the IC50 in the assay with TNF-α (Homo sapiens, PBMC, 24 h) was 1000 to 4000 nM; in the assay on IL-2, below 1000 nM; in the assay with IFN-γ it was 1000 to 4000 nM; in the assay with IL-5, 4000 to 10000 nM; in the assay on IL-10, 1000 to 4000 nM; in assay [1], below 1000 nM.

With `O=C(NCc1ccccn1)c1ccc(Oc2ccc3c(c2)COB3O)cc1` [D78, 4-(1-Hydroxy-1,3-dihydro-benzo[c][1,2]oxaborol-5-yloxy)-N-pyridin-2-ylmethyl-benzamide], the IC50 is 1000 to 4000 nM with TNF-α (Homo sapiens, PBMC, 24 h); 1000 to 4000 nM in the assay on IL-2; 1000 to 4000 nM with IFN-γ; 1000 to 4000 nM in the assay on IL-5; 1000 to 4000 nM in the assay on IL-10; below 1000 nM in assay [1].

In the case of `N#Cc1ccc(Oc2ccc3c(c2)COB3O)nc1` [D82, 6-(1-hydroxy-1,3-dihydrobenzo[c][1,2]oxaborol-5-yloxy)nicotinonitrile], the half-inhibitory concentration (IC50) is below 1000 nM with TNF-α (human PBMC); below 1000 nM in the assay on IL-2; below 1000 nM in the assay on IFN-γ; 1000 to 4000 nM with IL-5; below 1000 nM in the assay on IL-10; below 1000 nM in assay [1].

Turning to `N#Cc1ccc(Oc2ccc3c(c2)COB3O)c(F)c1` [D84, 3-fluoro-4-(1-hydroxy-1,3-dihydrobenzo[c][1,2]oxaborol-5-yloxy)benzonitrile], the IC50 was 1000 to 4000 nM in the assay with TNF-α (Homo sapiens, PBMC, 24 h); 1000 to 4000 nM with IL-2; 4000 to 10000 nM in the assay with IFN-γ; 4000 to 10000 nM in the assay on IL-5; 1000 to 4000 nM with IL-10; below 1000 nM in assay [1].

Consider `Cc1cc(C#N)ccc1Oc1ccc2c(c1)COB2O` [D85, 3-methyl-4-(1-hydroxy-1,3-dihydrobenzo[c][1,2]oxaborol-5-yloxy)benzonitrile], for which the IC50 with TNF-α (Homo sapiens, PBMC, 24 h) is below 1000 nM; in the assay on IL-2 it was below 1000 nM; in the assay on IFN-γ it was below 1000 nM; with IL-5, below 1000 nM; in the assay on IL-10, 1000 to 4000 nM; in assay [1] it was below 1000 nM.

As to `COc1ccc(Oc2ccc3c(c2)COB3O)cc1OC` [D94, 5-(3,4-dimethoxyphenoxy)benzo[c][1,2]oxaborol-1 (3H)-ol], the IC50 was 1000 to 4000 nM with TNF-α (Homo sapiens, PBMC, 24 h); 1000 to 4000 nM in the assay on IL-2; 1000 to 4000 nM in the assay on IFN-γ; 1000 to 4000 nM in the assay on IL-5; above 10000 nM in the assay with IL-10; below 1000 nM in assay [1].
